Assay results reported in ChEMBL document CHEMBL4406853 (Eur J Med Chem, 2019).

Assays:
[1] = target: T1, Kappa-type opioid receptor (Homo sapiens, UniProt P41145); assay: Inhibition of kappa opioid receptor (unknown origin) assessed as increase in beta arrestin 2 recruitment
[2] = target: T1, Kappa-type opioid receptor; assay: Inhibition of kappa opioid receptor (unknown origin) assessed as increase in beta arrestin 2 recruitment relative to control
[3] = target: T1, Kappa-type opioid receptor; assay: Inhibition of kappa opioid receptor (unknown origin) by [35S]-GTPgammaS binding assay; format: functional
[4] = target: T1, Kappa-type opioid receptor; assay: Inhibition of kappa opioid receptor (unknown origin) assessed as effect on ERK1 phosphorylation
[5] = target: T1, Kappa-type opioid receptor; assay: Inhibition of kappa opioid receptor (unknown origin) assessed as effect on ERK2 phosphorylation
[6] = target: T1, Kappa-type opioid receptor; assay: Inhibition of kappa opioid receptor (unknown origin) assessed as effect on ERK1 phosphorylation relative to control
[7] = target: T1, Kappa-type opioid receptor; assay: Inhibition of kappa opioid receptor (unknown origin) assessed as effect on ERK2 phosphorylation relative to control

T1 sequence (P41145 whole entry): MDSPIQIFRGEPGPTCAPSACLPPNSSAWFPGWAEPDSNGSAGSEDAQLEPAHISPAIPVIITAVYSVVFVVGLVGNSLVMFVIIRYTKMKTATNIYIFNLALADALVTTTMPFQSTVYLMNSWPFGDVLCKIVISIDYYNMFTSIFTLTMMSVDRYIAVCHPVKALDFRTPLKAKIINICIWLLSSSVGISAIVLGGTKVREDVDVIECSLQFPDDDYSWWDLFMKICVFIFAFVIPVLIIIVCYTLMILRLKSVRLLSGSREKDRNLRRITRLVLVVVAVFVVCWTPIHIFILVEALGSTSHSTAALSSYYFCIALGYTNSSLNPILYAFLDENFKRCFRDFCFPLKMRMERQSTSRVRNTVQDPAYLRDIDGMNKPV

Ic1ccc(CSc2nnc(-c3ccccn3)n2Cc2ccccn2)cc1 gave an EC50 [1] of 10.1 µM, an Emax [2] of 101% and an EC50 [3] of 75.5 nM. For the same compound, the EC50 [4] was 107 nM, the EC50 [5] was 107 nM and the Emax [6] was 109%. The Emax [7] was 109%.
